# Laboratory results reported in the supplement of paper PMC11061612.
# How the values were obtained:
# [1] = tested on: DMS-273 (Small Cell Lung Carcinoma); assay: combination Emax (second highest fraction inhibited in the dose matrix, 72 h); higher = more inhibition; extreme values may be limits of the assay
# Method in brief: (§1)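 Cell lines in DMEM/F12 or RPMI with 10% FBS were plated in 1536-well plates, held 24 hours at 37°C, 5% CO2, then given two-drug dose matrices for 72 hours (DMSO typically 0.2%). Viability was read by CellTiter-Glo 2.0 luminescence and scaled as inhibition from 0 (vehicle wells) to 1 (blank wells). Combination Emax is the second-highest inhibition in the matrix; Bliss excess is observed combination effect minus expected EA + EB − EA·EB, EA and EB being single-agent effects.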
# [2] = tested on: SW756 (Cervical Carcinoma); assay: as above
# Method in brief: as §1
# [3] = tested on: HT-29 (Colorectal Carcinoma); assay: as above
# Method in brief: as §1
# [4] = tested on: MDA-MB-231 (Breast Carcinoma); assay: as above
# Method in brief: as §1
# [5] = tested on: NALM-6 (B-Lymphoblastic Leukemia); assay: as above
# Method in brief: as §1
# [6] = tested on: NCI-H1781 (Lung Adenocarcinoma); assay: as above
# Method in brief: as §1
# DSH1 (Bladder Carcinoma) [7] = assay: as above
# Method in brief: as §1
# [8] = tested on: KM-H2 (Hodgkin's Lymphoma); assay: as above
# Method in brief: as §1
# [9] = tested on: COR-L95 (Small Cell Lung Carcinoma); assay: as above
# Method in brief: as §1
# [10] = tested on: DB (B-Cell Non-Hodgkin's Lymphoma); assay: as above
# Method in brief: as §1
# [11] = tested on: C3A (Hepatocellular Carcinoma); assay: as above
# Method in brief: as §1
# [12] = tested on: CFPAC-1 (Pancreatic Carcinoma); assay: Bliss excess, mean over the matrix (fraction); higher = more synergy
# Method in brief: as §1
# [13] = tested on: LS-513 (Colorectal Carcinoma); assay: as above
# Method in brief: as §1
# [14] = tested on: JiyoyeP-2003 (Burkitt's Lymphoma); assay: as above
# Method in brief: as §1
# [15] = tested on: HPAC (Pancreatic Carcinoma); assay: as above
# Method in brief: as §1
# [16] = tested on: 697 (B-Lymphoblastic Leukemia); assay: as above
# Method in brief: as §1
# DSH1 (Bladder Carcinoma) [17] = assay: as above
# Method in brief: as §1
# [18] = tested on: KARPAS-620 (Plasma Cell Myeloma); assay: as above
# Method in brief: as §1
# [19] = tested on: COR-L95 (Small Cell Lung Carcinoma); assay: as above
# Method in brief: as §1
# RH-1 (Ewing's Sarcoma) = assay: as above
# Method in brief: as §1
# 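Wherever Bliss excess, mean over the matrix is given: after 72 h of two-drug dosing.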
Structure (SMILES),combination Emax [1],combination Emax [2],combination Emax [3],combination Emax [4],combination Emax [5],combination Emax [6],combination Emax (DSH1 (Bladder Carcinoma) [7]),combination Emax [8],combination Emax [9],combination Emax [10],combination Emax [11],Bliss excess [12],Bliss excess [13],Bliss excess [14],Bliss excess [15],Bliss excess [16],Bliss excess (DSH1 (Bladder Carcinoma) [17]),Bliss excess [18],Bliss excess [19],Bliss excess (RH-1 (Ewing's Sarcoma))
"COc1cccc2c1C(=O)c1c(O)c3c(c(O)c1C2=O)C[C@@](O)(C(=O)CO)C[C@@H]3O[C@H]1C[C@H](N)[C@H](O)[C@H](C)O1 [Doxorubicin] + Cc1cc2ncnn2cc1Nc1ncc2c(n1)n(C1CCOCC1)c(=O)n2C [AZD7648] (first compound max 1 µM, 7x7, partner max 10 µM)",0.866,0.514,0.657,0.786,1,0.932,0.86,0.791,0.865,0.896,0.485,0.0253,0.057,0.094,0.0275,0.101,0.0268,-0.0381,0.0084,0.163
"CC1(C)CCC(CN2CCN(c3ccc(C(=O)NS(=O)(=O)c4ccc(NCC5CCOCC5)c([N+](=O)[O-])c4)c(Oc4cnc5[nH]ccc5c4)c3)CC2)=C(c2ccc(Cl)cc2)C1 [Venetoclax] + C1CN(CCC1(C(=O)N[C@@H](CCO)C2=CC=C(C=C2)Cl)N)C3=NC=NC4=C3C=CN4 [Capivasertib] (first compound max 1 µM, 7x7, partner max 3 µM)",0.743,0.195,0.254,0.184,0.848,0.5,0.416,0.153,0.719,0.941,0.17,-0.0274,-0.0649,-0.0144,-0.0234,-0.0154,-0.0642,0.0971,0.0145,-0.0353
"Cc1c2c(nn1C)CSCc1cc(n(C)n1)CSc1cc(c3ccccc3c1)OCCCc1c(C(=O)O)n(C)c3c-2c(Cl)ccc13 [AZD5991] + CN(C)CCCOc1ccc(-c2ccc3ncc4c(c3c2)n(C2CCOCC2)c(=O)n4C)cn1 [AZD0156] (first compound max 1 µM, 7x7, partner max 1 µM)",0.976,0.203,0.254,0.351,0.408,0.665,0.638,0.201,0.378,0.974,0.198,0.0066,-0.0378,-0.0359,0.0384,-0.0468,-0.013,0.02,-0.0328,0.0081
"CCN(CCO)CCCOc1ccc2c(Nc3cc(CC(=O)Nc4cccc(F)c4)[nH]n3)ncnc2c1 [AZD2811] + O=C(c1cc(Cc2n[nH]c(=O)c3ccccc23)ccc1F)N1CCN(C(=O)C2CC2)CC1 [Olaparib] (first compound max 1 µM, 7x7, partner max 10 µM)",0.735,0.0979,0.182,0.275,0.873,0.67,0.328,0.384,0.436,0.604,0.253,0.0077,-0.0158,0.0809,0.0032,0.0165,0.0082,0.0273,-0.0526,-0.0451
"COc1cccc(OCCCN)c1-c1cc(Nc2cnc(C#N)cn2)n[nH]1 [Prexasertib] + Cc1cc2ncnn2cc1Nc1ncc2c(n1)n(C1CCOCC1)c(=O)n2C [AZD7648] (first compound max 1 µM, 7x7, partner max 10 µM)",0.909,0.489,0.861,0.696,0.943,0.468,0.768,0.924,0.644,0.766,0.611,-0.0398,-0.0509,0.017,-0.0074,-0.0293,-0.0289,0.0083,-0.102,-0.0085
"COc1nnc2ccc(N3CCC(c4ccc(OCCN5CCN(C)C(=O)[C@H]5C)cc4)CC3)nn12 [AZD5153] + CC1(C)CCC(CN2CCN(c3ccc(C(=O)NS(=O)(=O)c4ccc(NCC5CCOCC5)c([N+](=O)[O-])c4)c(Oc4cnc5[nH]ccc5c4)c3)CC2)=C(c2ccc(Cl)cc2)C1 [Venetoclax] (first compound max 1 µM, 7x7, partner max 1 µM)",0.749,0.315,0.718,0.661,0.993,0.224,0.623,0.377,0.802,0.991,0.453,-0.0228,-0.0442,-0.0302,-0.0507,-0.0358,-0.0524,-0.0637,0.0382,-0.0391
"C[C@@H](c1ccc2nccn2c1)n1nnc2ncc(-c3cnn(C)c3)nc21 [Savolitinib] + CC1(C)CCC(CN2CCN(c3ccc(C(=O)NS(=O)(=O)c4ccc(NCC5CCOCC5)c([N+](=O)[O-])c4)c(Oc4cnc5[nH]ccc5c4)c3)CC2)=C(c2ccc(Cl)cc2)C1 [Venetoclax] (first compound max 1 µM, 7x7, partner max 1 µM)",0.239,0.1,0.149,0.306,0.316,0.208,0.286,0.15,0.586,0.741,0.148,-0.0514,-0.0599,-0.0438,-0.084,-0.114,0,-0.0449,0.0069,-0.0321
"CC1(C)CCC(CN2CCN(c3ccc(C(=O)NS(=O)(=O)c4ccc(NCC5CCOCC5)c([N+](=O)[O-])c4)c(Oc4cnc5[nH]ccc5c4)c3)CC2)=C(c2ccc(Cl)cc2)C1 [Venetoclax] + C[C@@H]1COCCN1C2=NC(=NC(=C2)C3(CC3)[S@](=N)(=O)C)C4=C5C=CNC5=NC=C4 [AZD6738] (first compound max 1 µM, 7x7, partner max 10 µM)",0.809,0.325,0.865,0.624,0.994,0.451,0.659,0.879,0.838,0.983,0.452,0.015,-0.0591,0.0139,-0.0736,0.0052,-0.0662,0.0235,-0.0056,-0.0158
"C=CCn1c(=O)c2cnc(Nc3ccc(N4CCN(C)CC4)cc3)nc2n1-c1cccc(C(C)(C)O)n1 [AZD1775] + O=C(c1cc(Cc2n[nH]c(=O)c3ccccc23)ccc1F)N1CCN(C(=O)C2CC2)CC1 [Olaparib] (first compound max 1 µM, partner max 10 µM)",0.549,0.35,0.818,0.582,0.94,0.538,0.369,0.961,0.639,0.912,0.55,-0.0585,0.0008,-0.0086,0.0077,0.0782,-0.0534,-0.0324,-0.101,0.044
"CN(C)CCCOc1ccc(-c2ccc3ncc4c(c3c2)n(C2CCOCC2)c(=O)n4C)cn1 [AZD0156] + C=CCn1c(=O)c2cnc(Nc3ccc(N4CCN(C)CC4)cc3)nc2n1-c1cccc(C(C)(C)O)n1 [AZD1775] (first compound max 1 µM, partner max 1 µM)",0.589,0.379,0.83,0.374,0.906,0.43,0.421,0.953,0.623,0.891,0.524,-0.0645,-0.0448,-0.0012,-0.0284,0.0183,0.0236,0.0135,-0.107,0.0329
"C[C@@H](c1ccc2nccn2c1)n1nnc2ncc(-c3cnn(C)c3)nc21 [Savolitinib] + Cc1c2c(nn1C)CSCc1cc(n(C)n1)CSc1cc(c3ccccc3c1)OCCCc1c(C(=O)O)n(C)c3c-2c(Cl)ccc13 [AZD5991] (first compound max 1 µM, 7x7, partner max 1 µM)",0.933,0.128,0.142,0.284,0.226,0.32,0.678,0.11,0.163,0.986,0.195,-0.0875,-0.0219,-0.0034,-0.0586,-0.0516,0.0335,-0.049,-0.0171,0.0031
"Cn1cnc2c(F)c(Nc3ccc(Br)cc3Cl)c(C(=O)NOCCO)cc21 [Selumetinib] + C[C@@H]1COCCN1C2=NC(=NC(=C2)C3(CC3)[S@](=N)(=O)C)C4=C5C=CNC5=NC=C4 [AZD6738] (first compound max 10 µM, 7x7, partner max 10 µM)",0.811,0.287,0.862,0.718,0.972,0.396,0.761,0.751,0.535,0.274,0.759,-0.0112,0.0046,-0.0145,-0.0015,0.0344,-0.0734,0.0471,-0.0778,-0.0215
"CCN(CCO)CCCOc1ccc2c(Nc3cc(CC(=O)Nc4cccc(F)c4)[nH]n3)ncnc2c1 [AZD2811] + C=CCn1c(=O)c2cnc(Nc3ccc(N4CCN(C)CC4)cc3)nc2n1-c1cccc(C(C)(C)O)n1 [AZD1775] (first compound max 1 µM, partner max 1 µM)",0.827,0.407,0.82,0.394,0.915,0.819,0.324,0.938,0.655,0.867,0.421,-0.0695,-0.0974,0.0548,0.0048,0.0164,-0.0013,-0.0619,-0.0225,-0.0163
